Assay results: patent US20170268001A1, “RNAS WITH TUMOR RADIO/CHEMO-SENSITIZING AND IMMUNOMODULATORY PROPERTIES AND METHODS OF THEIR PREPARATION AND APPLICATION” (THE UNIVERSITY OF CHICAGO, priority 2016, published 2017)

Experiments:
MC38 tumors [1] = assay: ELISPOT of IFNγ-secreting tumor-specific CD8+ T cells from tumor DLNs; format: in vivo, mouse
Description: (§1) Tumor volumes were measured along three orthogonal axes (a, b, and c) and calculated as tumor volume=abc/2. Tumors were allowed to grow for 9-10 days and treated by local radiation (Deng et al., 2014). Briefly, the body was protected with a lead cover and the tumor was exposed, allowing local radiation. Tumors were irradiated using RS-2000 Biological Irradiator (RAD SOURCE) at the dose of 20Gy with 160 kV and 25 mA. For type I IFN blockade experiments, 200 μg anti-IFAR1 mAb was intratumorally injected on day 0 and 2 after radiation. For HMGB-1 blockade experiments, 200 μg anti-HMGB-1 mAb (clone 3B1, generated by inventors) was administered i.p. on day 0 and 3 after radiation. For CD8^+ T cell depletion experiments, 300 μg anti-CD8 mAb (Clone 2.43, BioXCell) was delivered 5 times by i.p. injection every three days starting one day before radiation. For exogenous IFN-β treatment experiments, 1×10^10 viral particles of Ad-IFN-β (Burnette, B., et al., The Efficacy of Radiotherapy Relies upon Induction of Type I Interferon-Dependent Innate and Adaptive Immunity, Cancer Res Apr. 1, 2011 71; 2488; (doi: 10.1158/0008-5472.CAN-10-2820)) were intratumorally administered on day 2 after radiation. Ad-null was used as negative control. […]

MC38 tumors [2] = assay: MC38 tumor growth after local radiation (20Gy); format: in vivo, mouse
Description: 1×10^6 MC38 tumor cells were subcutaneously injected into the flank of mice.
as §1

BMDCs = assay: BMDC cross-priming of CD8+ T cells with irradiated tumor cells (ELISPOT); format: cell-based, mouse; settings: IFN-β 10 ng/ml in co-culture; DMXAA 100 μg/ml, 3 h
Description: Single-cell suspensions of bone marrow cells were obtained from C57BL/6J, STING^−/− and IRF3^−/− mice. Bone marrow from cGAS^−/− mice was kindly provided by Dr. Zhijian J. Chen of University of Texas Southwestern Medical Center, Dallas. The cells were placed in 10 cm petri dish and cultured in RPMI-1640 medium containing 10% fetal bovine serum ([…]), supplemented with 20 ng/ml GM-CSF. Fresh media with GM-CSF was added into culture on day 3. BMDCs (bone marrow-derived dendritic cells) were harvest for stimulation assay on day 7. 8×10^6 MC38-SIY^hi cells were plated into 10 cm cell culture dishes overnight, and then pretreated with 40Gy and incubated for 5 hours. BMDCs were added and co-cultured with MC38-SIY″ cells at the ratio of 1:1 in the presence of fresh GM-CSF for additional 8 hours. Subsequently purified CD11c^+ cells with EasySep™ Mouse CD11c Positive Selection Kit II ([…]) were incubated with isolated CD8^+ T cells from naive 2C mice for three days. For the bypassing assay, 10 ng/ml murine IFN-β was added in the co-culture of BMDCs and tumor cells, or 100 μg/ml DMXAA was added into isolated CD11c^+ cells with additional 3 h incubation. For IFN-β detection, BMDCs were co-cultured with tumor cells at the ratio of 1:1 for additional 8 hours, and 1×10^6 cells/ml purified CD11c^+ cells were seed into 96-well plates for 48 hours. […]

[3] = tested on: RIG-I^−/− and WT MEFs; shRIG-I D54 and HCT116 tumor cells; assay: Caspase 3/7 activity in response to chemotherapy drugs with or without RIG-I; format: cell-based; settings: increasing doses of drug
[4] = target: T1, RIG-I (DDX58), full-length (Homo sapiens) (UniProt O95786); assay: pulldown; settings: CLIP-qPCR, enrichment in RIG-I complexes from irradiated (6 Gy) vs non-irradiated HEK293; also enriched in HCT116
T1 sequence: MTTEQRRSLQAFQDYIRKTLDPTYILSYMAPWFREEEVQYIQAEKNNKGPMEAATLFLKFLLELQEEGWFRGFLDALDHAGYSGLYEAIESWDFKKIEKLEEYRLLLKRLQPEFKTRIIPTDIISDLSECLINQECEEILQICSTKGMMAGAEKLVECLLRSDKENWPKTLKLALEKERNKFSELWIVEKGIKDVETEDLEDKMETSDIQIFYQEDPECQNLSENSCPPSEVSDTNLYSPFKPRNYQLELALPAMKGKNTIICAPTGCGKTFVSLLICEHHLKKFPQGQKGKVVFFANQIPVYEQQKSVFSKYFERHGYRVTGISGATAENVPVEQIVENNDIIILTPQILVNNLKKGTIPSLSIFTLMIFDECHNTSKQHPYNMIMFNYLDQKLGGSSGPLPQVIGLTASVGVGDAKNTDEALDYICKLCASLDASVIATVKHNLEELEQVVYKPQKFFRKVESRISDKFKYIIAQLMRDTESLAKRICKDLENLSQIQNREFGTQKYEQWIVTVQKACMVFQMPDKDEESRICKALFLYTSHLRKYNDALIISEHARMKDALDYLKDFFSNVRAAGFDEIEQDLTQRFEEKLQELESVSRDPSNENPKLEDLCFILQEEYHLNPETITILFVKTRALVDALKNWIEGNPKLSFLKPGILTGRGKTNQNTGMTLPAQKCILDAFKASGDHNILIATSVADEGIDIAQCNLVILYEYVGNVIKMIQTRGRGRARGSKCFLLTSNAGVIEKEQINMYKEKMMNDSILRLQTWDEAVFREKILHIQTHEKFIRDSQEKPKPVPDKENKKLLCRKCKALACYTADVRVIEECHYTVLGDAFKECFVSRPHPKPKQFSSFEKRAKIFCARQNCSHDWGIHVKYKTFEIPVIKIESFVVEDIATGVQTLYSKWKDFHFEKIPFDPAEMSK

RIG-I = target: T2, RIG-I (Homo sapiens, UniProt O95786); assay: HEK293 IFN-beta promoter dual luciferase reporter, RNA stimulation; format: cell-based; settings: 1 μg synthetic oligonucleotide, 24 hour stimulation
T2 construct: HEK293 cells overexpressing either the full length RIG-I; host or cells: HEK293; HCT116 also for the qRT-PCR validation
T2 sequence (O95786 1-925): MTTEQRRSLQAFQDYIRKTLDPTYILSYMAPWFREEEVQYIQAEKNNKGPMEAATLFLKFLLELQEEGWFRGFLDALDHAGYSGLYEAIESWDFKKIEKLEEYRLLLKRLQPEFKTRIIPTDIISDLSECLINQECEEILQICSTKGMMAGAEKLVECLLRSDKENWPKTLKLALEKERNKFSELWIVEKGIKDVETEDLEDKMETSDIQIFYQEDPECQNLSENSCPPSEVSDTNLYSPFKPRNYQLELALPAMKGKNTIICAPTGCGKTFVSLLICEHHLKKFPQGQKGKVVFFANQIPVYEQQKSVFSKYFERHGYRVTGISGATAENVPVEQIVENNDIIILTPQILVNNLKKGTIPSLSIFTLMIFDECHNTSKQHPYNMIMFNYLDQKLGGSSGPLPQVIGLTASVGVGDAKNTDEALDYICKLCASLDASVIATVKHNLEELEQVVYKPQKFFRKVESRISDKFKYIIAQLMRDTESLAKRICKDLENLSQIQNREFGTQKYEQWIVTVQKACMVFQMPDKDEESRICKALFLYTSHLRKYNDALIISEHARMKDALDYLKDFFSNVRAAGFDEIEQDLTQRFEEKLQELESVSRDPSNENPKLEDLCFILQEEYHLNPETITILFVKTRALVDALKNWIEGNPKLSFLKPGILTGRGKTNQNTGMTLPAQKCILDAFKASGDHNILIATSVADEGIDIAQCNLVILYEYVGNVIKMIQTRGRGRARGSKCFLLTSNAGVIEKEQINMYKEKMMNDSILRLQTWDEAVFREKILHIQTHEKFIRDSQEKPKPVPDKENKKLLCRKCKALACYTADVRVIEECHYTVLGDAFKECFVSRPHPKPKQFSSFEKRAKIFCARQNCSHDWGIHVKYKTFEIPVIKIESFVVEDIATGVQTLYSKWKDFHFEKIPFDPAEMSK
Description: We also used reporter HEK293 cells as simple technique to evaluate ability of the given RNA to stimulate IFN-beta production in preliminary in vitro experiments. Technically this was performed as follows: RNA stimulation of HEK293 IFN-beta reporter cells HEK293 cells were seeded in a 24-well plate overnight at a density of 1.5×10^5 cells/ml (75,000 cells/well). Cells were co-transfected with 100 ng of plasmid construct (pCAGGS empty vector, pCAGGS-RIG-I full-length, pCAGGS-RIG-I helicase-RD mutant construct, and […] mutant construct), together with 80 ng of a firefly luciferase reporter gene driven by an IFN-beta promoter and 20 ng of a Renilla luciferase (pRL-null) transfection control. Transfections were performed using a cationic lipid agent, Fugene HD (Promega), at a 3:1 lipid:DNA ratio. Twenty-four hours post-transfection, cells were then stimulated with 1 μg RNA* mixed with Fugene HD at 2:1 lipid: RNA ratio for 24 hours. 20 μl cell lysates were collected in opaque 96-well plates and analyzed for IFN-beta-luciferase and Renilla activity using a BioTek Synergy HT plate reader. The transfection efficiency across different wells was normalized by dividing the IFN-beta luciferase activity with the Renilla activity. All values were further normalized to the unstimulated controls in cells transfected with the empty vector. All pCAGGS RIG-I constructs used in this study were generous gifts from Dr. Jenish Patel and Dr. Adolfo Garcia-Sastre of The Icahn School of Medicine at Mount Sinai in New York City. Synthetic RNA comprised of various stem loop regions of the human U1 snRNA were purchased from IDT Oligos as reported in (Bernard et al., 2012). U1 stem loop I sequence: [NT] ID NO:15); U1 stem loop II sequence: [NT] ID NO:16); U1 stem loop III sequence: [NT] ID NO:17); U1 stem loop IV sequence: [NT] ID NO:18); U1 stem loops I and II sequence: [NT] ID NO:19); U1 stem loops II and III sequence: [NT] ID NO:20). In vitro transcribed U1 RNA stimulation: Full length U1 (pT7U1) plasmid was generously provided by Dr. Joan Steitz (Yale School of Medicine, Yale University). […]

Nc1nc2c(ncn2[C@@H]2O[C@@H]3COP(=O)(O)O[C@H]4[C@@H](O)[C@H](n5cnc6c(N)ncnc65)O[C@@H]4COP(=O)(O)O[C@@H]2[C@@H]3O)c(=O)[nH]1 [2′3′-cGAMP, cyclic [G(2′,5′)pA(3′,5′)p]]
number of tumor-specific IFN-γ-producing CD8+ T cells in DLNs (MC38 tumors [1]; combination with radiation vs radiation or 2′3′-cGAMP alone, WT mice): significantly increased
antitumor CD8+ T cell response induced by combination with radiation (MC38 tumors [1]; deficiency of STING in the host): dampened
synergy with radiation (MC38 tumors [2]; STING^−/− mice): abrogated
tumor burden, combination with radiation compared to either alone (MC38 tumors [2]; WT mice, 10 μg intratumorally on day 2 and 6 after 20Gy): effectively reduce tumor burden

Cc1ccc2c(=O)c3cccc(CC(=O)O)c3oc2c1C [DMXAA]
function of STING^−/− BMDCs (cross-priming) (BMDCs): fails to rescue
function of cGAS^−/− BMDCs (cross-priming) (BMDCs): restored

N.N.[Cl][Pt][Cl] [cisplatin]
caspase 3/7 activity in response to drug treatment, RIG-I absent or depleted vs control cells [3]: reduced caspase 3/7 activity

COc1cccc2c1C(=O)c1c(O)c3c(c(O)c1C2=O)C[C@@](O)(C(=O)CO)C[C@@H]3O[C@H]1C[C@H](N)[C@H](O)[C@H](C)O1 [doxorubicin]
caspase 3/7 activity in response to drug treatment, RIG-I absent or depleted vs control cells [3]: reduced caspase 3/7 activity

U1 snRNA (endogenous)
binding signal [4]: 6 fold

B1: SL I+II: synthetic RNA of U1 stem loops I and II, SEQ ID NO:19 (nucleic acid)
chain: GGGAGATACCATGATCACGAAGGTGGTTTTCCCAGGGCGAGGCTTATCCATTGCACTCCGGATGTGCTGACCCC
modifications: listed as DNA, chemistry not given here
IFN-beta response (reporter activity in HEK293; IFN-b in MEF supernatant) (RIG-I): potent inducers of IFN-beta response

B2: SL II+III: synthetic RNA of U1 stem loops II and III, SEQ ID NO:20 (nucleic acid)
chain: GGGCGAGGCTTATCCATTGCACTCCGGATGTGCTGACCCCTGCGATTTCCCCAAATGTGGGAAACTCGACTGC
modifications: listed as DNA, chemistry not given here
IFN-beta response (reporter activity in HEK293; IFN-b in MEF supernatant) (RIG-I): potent inducers of IFN-beta response
